Paper PMC9414676, “Experimental Studies Indicate That ST-2223, the Antagonist of Histamine H3 and Dopamine D2/D3 Receptors, Restores Social Deficits and Neurotransmission Dysregulation in Mouse Model of Autism” (Pharmaceuticals, 2022)

Test system: acetylcholine levels in BTBR mice brain
Assay: Acetylcholine levels by LC-MS/MS in brain regions
Type: in vivo
Parameters: key to Acetylcholine level: ↔: No significant alterations; ↑: significant increase; ↑↑: additional significant increase vs. ST-2223-treated mice; ↓: significant decrease
Details: for Acetylcholine level: ST-2223 5 mg/kg i.p. chronic, vs VEH-treated BTBR mice
Procedure: All the mice were randomly divided into nine groups of 5–7 mice each. The mice were injected intraperitonially once daily for 21 days with different doses of ST2223 (2.5, 5, and 10 mg/kg, i.p.), ARP 1 mg/kg or vehicle (1% DMSO in 0.9% normal saline). Group I, B6 mice were injected with vehicle served as control. Group II, BTBR mice were treated with vehicle. Groups III–V, BTBR mice received i.p. injections of different doses of ST2223 (2.5, 5, and 10 mg/kg, i.p.), respectively. Group VI, BTBR mice were injected with ARP (1 mg/kg, i.p.). For abrogation studies, Group VII, BTBR mice were treated with ST2223 (5 mg/kg, i.p.) along with RAM (10 mg/kg, i.p.). Group VIII, B6 mice were co-injected with vehicle and RAM (10 mg/kg, i.p). All treatments and vehicle (VEH) were administered 30–45 min before each behavioral test. The doses of these drugs were selected based on previous reports. Behavioral testing was performed between 9:00 am and 3:00 pm in an order randomized by group and in the following sequence: social approach test (SAT) and open field locomotor test (OFL). The chronic treatment started one week before the behavioral test and was continued for a total of 21 days as described above (Figure 7). Following behavioral tests, i.e., on day 21 of systemic treatment, five of the animals were sacrificed. The animals were deeply anesthetized with pentobarbital (40 mg/kg, i.p., body weight). To wash out the blood, cardiac perfusion was carried out using 0.01 M phosphate-buffered saline (PBS) at pH 7.4. The brains were quickly removed and placed on an ice plate, where the cerebellum, hippocampus, prefrontal cortex, and striatum were excised from the brain and snap-frozen in liquid nitrogen for later LC-MS/MS analysis.
Perfusion was done on anesthetized animals using 1X PBS as described previously. Different regions of the brain were snap frozen. Frozen tissues were then weighed and homogenized in a 10-fold volume of acetonitrile. For 50mg of tissue, 500 µL of acetonitrile and Internal standard mix were added and homogenized. Homogenates were centrifuged at 15,000 rcf for 15 min at 4 °C. Tissue levels of dopamine, acetylcholine, histamine, and their metabolites were assessed using LC-MS/MS. LC-MS/MS analysis was conducted utilizing Waters BEH C18 COLUMN (2.1 × 100 mm, 1.7 µm) using Waters Acquity UPLC Binary Solvent Manager and FTN Sample Manager. The system was run in gradient mode with mobile phase A consisting of LC-MS GRADE WATER + 0.1% FORMIC ACID and mobile phase B consisting of 100% ACETONITRILE. Mobile phase was duly filtered through 0.2 µm filter and degassed ultrasonically for 15 min prior to use. Separations were performed at room temperature with 0.3 mL/min flow rate gradient starting with 90% of A for up to 0.5 min. Then, % of A was decreased gradually until it reached 20% at 2.5 min after which at 3 min %A was brought back to the initial condition and left for equilibration for 2 more minutes before the next injection (total 5 min run time). The injection volume was kept at 1 µL. Mass spectrometric detection was performed in multiple reaction monitoring (MRM) mode with positive electrospray ionization (ESI+) on Xevo TQS mass spectrometer (Waters, Milford, MA) equipped with an electrospray ionization (ESI) source and triple quadrupole mass analyzer. MRM transitions and instrument parameters were set by tuning the instrument by infusing each analyte. MRM transitions taken for quantification were 146.2 > 87.1 for Acetylcholine, 112.2 > 95.2 for Histamine, 154.1 > 137.2 for Dopamine, 150.2 > 91.3 for Acetylcholine D4, and […] > 99.3 for Histamine D4. Capillary Voltage, Source Offset, Source Temperature, De solvation Temperature, Cone Gas Flow, De solvation Gas Flow, Collision Gas Flow, Nebulizer Gas Flow were set as 3.0 (kV), 60.0 (V), 150 (°C), 550 (°C), 150 (L/Hr), 1000 (L/Hr), 0.13 (mL/min), and 7 (Bar), correspondingly. […]

Structure (SMILES): COc1ccccc1N1CCN(CCCCNC(=O)c2ccc3cc(OCCCN4CCCCC4)ccc3c2)CC1 [ST-2223, N-(4-(4-(2-methoxyphenyl)piperazin-1-yl)butyl)-6-(3-(piperidin-1-yl)propoxy)-2-naphthamide]
- Acetylcholine level (Hippocampus): ↑ ^b
- Acetylcholine level (Prefrontal cortex): ↑ ^b
- Acetylcholine level (Striatum): ↑ ^b
- acetylcholine levels (prefrontal cortex, striatum and hippocampus, ST-2223 5 mg/kg chronic, p < 0.05): significant increase of acetylcholine levels
